Results: US20120237566A1, “INHIBITING STOMACH-ACID RELEASE, REDUCING INFLAMMATION AND PREVENTING AND TREATING CANCER: COMPOSITIONS AND METHODS OF USE” (Venture Isles, LLC, priority 2011, published 2012)
Entries after “also recorded” stand apart in the source; their conditions may differ. Where two headings read alike, the source gives them in different places.

Tests used:
[1] = biological target: high-affinity K site (Homo sapiens, UniProt P20648); settings: cited from earlier work
[2] = test system: gastric microsomal K-pNPPase; assay: K-pNPPase activity of gastric microsomes; type: biochemical
[3] = test system: chambered bull frog gastric mucosa; settings: cited from earlier work
[4] = test system: Na—K-ATPase; settings: cited from earlier work
[5] = biological target: H, K-ATPase (Homo sapiens, UniProt P20648); settings: cited from earlier work
H, K-ATPase, sequence (P20648 whole entry): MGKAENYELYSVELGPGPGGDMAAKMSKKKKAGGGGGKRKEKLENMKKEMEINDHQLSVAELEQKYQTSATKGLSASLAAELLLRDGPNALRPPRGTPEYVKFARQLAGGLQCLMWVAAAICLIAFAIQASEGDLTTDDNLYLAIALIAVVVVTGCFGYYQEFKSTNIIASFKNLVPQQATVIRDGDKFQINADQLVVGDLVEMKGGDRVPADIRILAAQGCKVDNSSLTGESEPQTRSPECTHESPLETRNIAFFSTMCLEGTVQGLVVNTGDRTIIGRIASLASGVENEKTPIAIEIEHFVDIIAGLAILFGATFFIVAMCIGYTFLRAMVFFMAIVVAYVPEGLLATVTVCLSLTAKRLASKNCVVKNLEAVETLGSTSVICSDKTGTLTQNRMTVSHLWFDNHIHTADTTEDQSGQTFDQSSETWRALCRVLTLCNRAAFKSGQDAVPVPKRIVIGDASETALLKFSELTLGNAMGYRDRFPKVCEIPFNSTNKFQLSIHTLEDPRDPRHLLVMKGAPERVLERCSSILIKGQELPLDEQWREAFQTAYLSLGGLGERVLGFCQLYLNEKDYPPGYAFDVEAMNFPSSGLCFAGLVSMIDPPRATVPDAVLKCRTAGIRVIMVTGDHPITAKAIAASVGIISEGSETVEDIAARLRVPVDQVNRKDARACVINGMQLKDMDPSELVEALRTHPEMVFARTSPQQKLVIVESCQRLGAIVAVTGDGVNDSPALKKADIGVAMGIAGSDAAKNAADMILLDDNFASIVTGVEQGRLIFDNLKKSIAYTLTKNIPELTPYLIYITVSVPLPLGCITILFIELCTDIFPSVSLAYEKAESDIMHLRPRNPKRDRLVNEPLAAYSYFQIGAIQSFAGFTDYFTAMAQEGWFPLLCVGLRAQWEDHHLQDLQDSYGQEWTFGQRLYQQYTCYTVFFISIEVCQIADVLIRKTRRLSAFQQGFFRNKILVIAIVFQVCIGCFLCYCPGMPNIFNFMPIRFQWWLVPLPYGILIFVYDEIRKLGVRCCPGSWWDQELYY
H, K-ATPase, sequence (P51164 whole entry partner): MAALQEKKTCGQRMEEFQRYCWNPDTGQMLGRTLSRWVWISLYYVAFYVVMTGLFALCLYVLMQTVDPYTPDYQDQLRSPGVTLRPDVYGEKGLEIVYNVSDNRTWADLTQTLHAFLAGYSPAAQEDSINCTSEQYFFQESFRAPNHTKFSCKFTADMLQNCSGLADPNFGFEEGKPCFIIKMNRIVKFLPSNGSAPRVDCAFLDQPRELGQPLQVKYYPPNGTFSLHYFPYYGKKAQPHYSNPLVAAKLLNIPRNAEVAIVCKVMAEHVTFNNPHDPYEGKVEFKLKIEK

[6] = test system: mitosis; settings: cited from earlier work
[7] = biological target: T1, neutrophil elastase (Homo sapiens, UniProt P08246); settings: cited from earlier work
T1 sequence (P08246 30-267): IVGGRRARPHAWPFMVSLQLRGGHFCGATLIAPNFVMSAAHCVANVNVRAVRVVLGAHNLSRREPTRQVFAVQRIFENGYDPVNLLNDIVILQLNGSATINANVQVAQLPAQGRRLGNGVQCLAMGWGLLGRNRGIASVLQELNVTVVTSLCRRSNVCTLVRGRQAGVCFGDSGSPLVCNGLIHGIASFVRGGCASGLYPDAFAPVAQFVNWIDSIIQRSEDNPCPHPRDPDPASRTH

[8] = test system: activated neutrophils; settings: micromolar EGCG; cited from earlier work
[9] = test system: neutrophil chemotaxis; settings: in vitro; cited from earlier work
[10] = test system: neutrophil-mediated angiogenesis; settings: oral; in vivo; cited from earlier work
[11] = test system: chambered bull frog gastric mucosa; assay: acid secretion by chambered bull frog gastric mucosa in vitro; type: cell-based
Source text: The method further comprises Step 2 that includes testing to determine if a candidate molecule inhibits the H, K-ATPase activity (inhibits the pump turnover), then test in an appropriate animal model(s) for the antisecretary activity and select the best candidates for clinical trial, as in Step 6.
(§1) Heavy-metal ions generally comprise Ba, Ca, and Zn and show synergistic inhibition when used in combination with thiocyanate and isothiocyanate. Zinc (Zn) inhibits acid secretion by a mechanism quite different than Barium and Calcium.
However, SCN and ZN include different modes of operation.

[12] = test system: gastric H, K-ATPase; assay: H, K-ATPase activity of isolated gastric microsomal vesicles; type: biochemical
Source text: as §1

[13] = test system: lipoxygenase; settings: cited from earlier work
[14] = test system: AP-1 mediated transcription; settings: in vitro; cited from earlier work
[15] = test system: inducible nitric oxide synthase (iNOS); settings: activated macrophages; cited from earlier work
[16] = test system: gastric H, K-ATPase; settings: cited from earlier work
[17] = biological target: highly purified H, K-ATPase (Homo sapiens, UniProt P20648); settings: cited from earlier work
highly purified H, K-ATPase, sequence (P20648 whole entry): as the sequence (P20648 whole entry) above
highly purified H, K-ATPase, sequence (P51164 whole entry partner): as the sequence (P51164 whole entry partner) above

high-affinity K site, sequence (P20648 whole entry): as the sequence (P20648 whole entry) above
high-affinity K site, sequence (P51164 whole entry partner): as the sequence (P51164 whole entry partner) above

## 2-[3,4]-dichlorophenylamino quinolizium bromide [nolinium bromide]
[1]
  interaction with the high-affinity K site: interacts competitively

## [Ba+2] [Barium]
[2]
  K-pNPPase activity, antagonism with K: parallel Ba/K antagonism
[3]
  reversal of inhibition of acid secretion by higher concentration of K: competitively reverses
[3]; higher concentration (above 1 mM)
  acid secretion: blocks the acid secretion
[3]; less than 1 mM concentration
  acid secretion: slight stimulation

## Clc1ccccc1C(c1ccccc1)(c1ccccc1)n1ccnc1 [CLT, clotrimazole]
[4]
  inhibition of Na—K-ATPase: potent inhibitors
[5]
  inhibition of H, K-ATPase: potent inhibitors

## [Ca+2] [Calcium]
[2]
  response of K-pNPPase inhibition to higher K: nonresponsive to higher K
[2]; concentrations comparable to Ba
  K-pNPPase activity: strong inhibition

## N#CSc1ccc(Cl)cc1Cl [DCPT, 2,4-dichlorophenyl thiocyanate]
[6]
  anti-proliferative / antimitotic activity: anti-proliferative property; also recorded: antimitotic

## O=C(O[C@@H]1Cc2c(O)cc(O)cc2O[C@@H]1c1cc(O)c(O)c(O)c1)c1cc(O)c(O)c(O)c1 [EGCG, (−)epigallocatechin-3-gallate]
[7]
  neutrophil elastase inhibition: strongly inhibits
[8]
  apoptosis of activated neutrophils: inhibits
  reactive oxygen species activity: represses
[9]
  chemokine-induced neutrophil chemotaxis: dramatically inhibits
[10]
  neutrophil-mediated angiogenesis: block

## Cc1nc2c(OCc3ccccc3)cccn2c1CC#N [SCH 28080]
[1]
  interaction with the high-affinity K site: interacts competitively

## [Zn+2] [Zn, Zinc]
[11]
  inhibition of gastric-acid secretion: potent inhibitors
  reversal of inhibition of acid secretion by beta-mercaptoehanol (βME) in the secretary solution: could be reversed
  reversal of inhibition of gastric acid secretion by raising K-salt in the bathing medium: totally ineffective
[11]; 1 mM beta-mercapto-ehanol (βME)
  restoration of acid secretion after Zn inhibition: promptly restored
[11]; at a concentration of 60 added to the secretary solution, within 15 min
  acid secretion: reduces the acid secretion to near zero
[12]
  activity of the isolated H, K-ATPase: strongly inhibited
[12]; 2 μM
  H, K-ATPase activity: abolished
[12]; 2 μM, listed as Zinc
  H, K-ATPase activity: abolishes
[12]; inhibition by Zn
  sensitivity of H, K-ATPase activity relative to pNPPase activity: ten times more sensitive
[2]
  activity of the isolated pNPPase: strongly inhibited
[2]; 20 μM
  K-pNPPase activity: abolishes

## COc1cc(C=CC(=O)CC(=O)C=Cc2ccc(O)c(OC)c2)ccc1O [curcumin, 1,7-bis(4-hydroxy-3-methoxyphenyl)-1,6-heptadiene-3,5-dione]
[13]
  lipoxygenase inhibition: inhibits
[14]
  AP-1 mediated transcription related to cytokine regulation: inhibits
[15]
  inducible nitric oxide synthase (iNOS): suppresses

## N#C[S-].[Na+] [thiocyanate, Sodium thiocyanate]
[11]
  inhibition of gastric-acid secretion: potent inhibitors
  reversal of inhibition of gastric acid secretion by raising K-salt in the bathing medium: can be reversed
[12]; 10 mM
  H, K-ATPase activity: totally ineffective
[2]
  reversal of K-pNPPase inhibition by high K: reversed by high K
[2]; 10 mM
  K-pNPPase activity: abolished
[3]
  gastric H transport: potent inhibitor
[16]
  H, K-ATPase mediated hydrolysis of ATP (ATPase activity): does not inhibit
[17]
  binding to purified H, K-ATPase: specific binding
  displacement of bound SCN by K: could be displaced by K
[17]; listed as SCN
  binding to purified H, K-ATPase: binding to a specific site
